From patent publication US8299074B2, “P38 MAP kinase inhibitors” (RespiVert Ltd., priority 2008, dated 2012) come the findings set out here.

Where two headings read alike, the source gives them in different places. Some results are limits rather than exact numbers.

By IC50 is commonly meant the concentration that gives 50% inhibition.

Data set [1] addresses T1, p38 MAPK alpha (MAPK14) (Homo sapiens, UniProt Q16539).
T1 construct: purchased Invitrogen
Put plainly: Enzyme inhibition assay, p38 MAPK alpha (FRET, Z-LYTE, via MAPKAP-K2). The conditions noted are these: read-out: Enzyme p38α IC50. It is filed as biochemical.

The test system of data set [2] is THP-1 cells. The data set can be described thus: LPS-induced TNF alpha release in THP-1 cells. It is filed as cell-based. The conditions noted are these: Homo sapiens. As to the method: LPS-Induced TNF Alpha Release in THP-1 Cells: Potency […] Coli; O111:B4, Sigma) for 4 hr and the supernatant collected for determination of TNFα concentration by sandwich ELISA (Duo-set, R&D systems). The inhibition of TNFα production was calculated at each concentration by comparison with vehicle control.

Data set [3] concerns BEAS2B cells. The data set can be described thus: Poly I:C-induced ICAM-1 induction in BEAS2B cells. The conditions noted are these: Homo sapiens, BEAS-2B, read-out: BEAS2B (polyIC) ICAM1 IC50. It is filed as cell-based. The gist of the method:
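Poly I:C (1 ug/ml) transfected into BEAS2B cells after 2 h compound pre-incubation. Surface ICAM-1 measured by cell-based ELISA 18 h post-transfection (HRP, OD450–655), corrected for cell number by OD595.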

For data set [4], the system named is U937 cells. Put plainly: LPS-induced IL-8 release in U937 cells. The note with it: Homo sapiens, read-out: DU937 (LPS) IL-8 IC50. The data set is classed as cell-based. The gist of the method: (§1)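 U937 cells differentiated with PMA (100 ng/ml) for 48 to 72 hours, pre-treated with compound for 2 hrs, then stimulated with E. coli O111:B4 LPS for 4 hrs. Supernatant TNFα and IL-8 measured by sandwich ELISA; inhibition at each concentration versus vehicle control.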

For data set [5], the system named is Differentiated U937 cells. The data set can be described thus: MTT assay (cell viability). The data set is classed as cell-based, human. The procedure, abridged:
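Differentiated U937 cells pre-incubated with compound 4 h in 5% FCS or 24 h in 10% FCS; MTT read at 550 nm after DMSO solubilisation. Percentage loss of viability relative to 0.5% DMSO vehicle; apparent increases appear as negative percentages.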
On the technique in general: Tetrazolium dyes change colour on reduction, which living cells bring about.

Data set [6] concerns U937 cells. Put plainly: LPS-induced TNF alpha release in U937 cells. It is filed as cell-based. The gist of the method: as §1
[7] abbreviates: THP-1, Table 1, read-out: THP-1 (LPS) TNFα IC50.
The mark [8] stands for this setting: Table 1, MTT, loss of cell viability at 1 μg/ml.
Setting [9] is: Table 1, first MTT column, loss of cell viability at 1 μg/ml.
[10] abbreviates: Homo sapiens; read-out: DU937 (LPS) TNFα REC50.
[11] abbreviates: THP-1, Table 3, read-out: THP-1 (LPS) TNFα IC50.
Setting [12] is: Table 3, first MTT column, loss of cell viability at 1 μg/ml.
[13] abbreviates: Table 3, second MTT column, loss of cell viability at 1 μg/ml.
The mark [14] stands for this setting: THP-1, Table 2, read-out: THP-1 (LPS) TNFα IC50.
Setting [15] is: Table 2, loss of cell viability at 1 μg/ml.

T1 sequence (Q16539 whole entry): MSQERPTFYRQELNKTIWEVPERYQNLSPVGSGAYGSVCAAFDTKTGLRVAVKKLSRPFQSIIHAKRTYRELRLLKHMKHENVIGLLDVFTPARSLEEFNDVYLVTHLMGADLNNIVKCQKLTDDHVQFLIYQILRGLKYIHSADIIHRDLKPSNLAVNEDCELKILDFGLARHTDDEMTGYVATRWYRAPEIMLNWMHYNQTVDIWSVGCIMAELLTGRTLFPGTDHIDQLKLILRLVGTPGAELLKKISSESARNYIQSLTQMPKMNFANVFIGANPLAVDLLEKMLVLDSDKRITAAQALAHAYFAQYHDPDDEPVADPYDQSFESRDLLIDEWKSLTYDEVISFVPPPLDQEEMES

For the molecule `Cc1ccc(-n2nc(C(C)(C)C)cc2NC(=O)Nc2ccc(Oc3ccnc(NC(=O)N(C)C)n3)c3ccccc23)cc1` [Example 68, 1,1-Dimethyl-3-(4-(4-(3-(3-tert-butyl-1-p-tolyl-1H-pyrazol-5-yl)ureido)naphthalen-1-yloxy)pyrimidin-2-yl)urea], the IC50 in data set [1] (Table 1) is under 10 nM; in data set [2] (setting [7]), under 5000 nM; in data set [3] (Table 1) it was under 10 nM; in data set [4] (Table 1), under 10 nM. Further, the “DU937 (cell viability) MTT assay 4 h” value in data set [5] (setting [8]) and in data set [5] (setting [9]) was “− (<=30%)” in each case. Besides, the EC50 in data set [6] (setting [10]) is under 10 nM.

As to `Cc1ccc(-n2nc(C(C)(C)C)cc2NC(=O)Nc2ccc(Oc3ccnc(NC(=O)NCCCCN4CCOCC4)c3)c3ccccc23)cc1` [Example 47, N-(4-(Morpholin-4-yl)butyl)-N′-4-(4-(3-(3-tert-butyl-1-p-tolyl-1H-pyrazol-5-yl)ureido)naphthalen-1-yloxy)pyridin-2-ylurea], the IC50 in data set [1] (Table 3), in data set [2] (setting [11]), in data set [3] (Table 3) and in data set [4] (Table 3) was under 10 nM each time. Besides, the “DU937 (cell viability) MTT assay 4 h” value in data set [5] (setting [12]) and in data set [5] (setting [13]) was “− (<=30%)” throughout. The EC50 in data set [6] (setting [10]) is under 10 nM.

With `Cc1ccc(-n2nc(C(C)(C)C)cc2NC(=O)Nc2ccc(Oc3ccnc(NC(=O)N(C)CCN4CCOCC4)c3)c3ccccc23)cc1` [Example 46, N-Methyl-N-(2-(morpholin-4-yl)ethyl)-N′-4-(4-(3-(3-tert-butyl-1-p-tolyl-1H-pyrazol-5-yl)ureido)naphthalen-1-yloxy)pyridin-2-ylurea], the IC50 in data set [1] (Table 3) is under 10 nM; in data set [2] (setting [11]), under 5000 nM; in data set [3] (Table 3), under 5000 nM; in data set [4] (Table 3) it was under 10 nM. For the same molecule, the “DU937 (cell viability) MTT assay 4 h” value in data set [5] (setting [12]) and in data set [5] (setting [13]) was “− (<=30%)” throughout. Also, the EC50 in data set [6] (setting [10]) was under 10 nM.

Consider `Cc1ccc(-n2nc(C(C)(C)C)cc2NC(=O)Nc2ccc(Oc3ccnc(NC(=O)CNC(=O)N4CCOCC4)c3)c3ccccc23)cc1` [Example 20, N-(2-(4-(4-(3-(3-tert-Butyl-1-p-tolyl-1H-pyrazol-5-yl)ureido)naphthalen-1-yloxy)pyridin-2-ylamino)-2-oxoethyl)morpholine-4-carboxamide], for which the IC50 is under 10 nM in data set [1] (Table 2), under 10 nM in data set [2] (setting [14]), under 5000 nM in data set [3] (Table 2) and under 5000 nM in data set [4] (Table 2). In data set [5] (setting [15]), the “DU937 (cell viability) MTT assay 4 h” value is “− (<=30%)”. Further, in data set [5] (setting [15]), the “DU937 (cell viability) MTT assay 24 h” value is “− (<=30%)”. Besides, the EC50 in data set [6] (setting [10]) is under 10 nM.

Consider `CNC(=O)Nc1nccc(Oc2ccc(NC(=O)Nc3cc(C(C)(C)C)nn3-c3ccc(C)cc3)c3ccccc23)n1` [Example 67, 1-Methyl-3-(4-(4-(3-(3-tert-butyl-1-p-tolyl-1H-pyrazol-5-yl)ureido)naphthalen-1-yloxy)pyrimidin-2-yl)urea], for which the IC50 in data set [1] (Table 1) was under 5000 nM; in data set [2] (setting [7]), under 10 nM; in data set [3] (Table 1), under 5000 nM; in data set [4] (Table 1), under 10 nM. The “DU937 (cell viability) MTT assay 4 h” value in data set [5] (setting [8]) and in data set [5] (setting [9]) was “− (<=30%)” in each case. For the same molecule, the EC50 in data set [6] (setting [10]) was under 10 nM.

Take `CNC(=O)Nc1cc(Oc2ccc(NC(=O)Nc3cc(C(C)(C)C)nn3-c3ccc(C)cc3)c3ccccc23)ccn1` [Example 36]: the IC50 in data set [1] (Table 3) was under 5000 nM; in data set [2] (setting [11]), under 10 nM; in data set [3] (Table 3) it was under 10 nM; in data set [4] (Table 3), under 5000 nM. Further, the “DU937 (cell viability) MTT assay 4 h” value in data set [5] (setting [12]) and in data set [5] (setting [13]) was “− (<=30%)” in each case. Further, the EC50 in data set [6] (setting [10]) is under 10 nM.

`COCC(=O)Nc1cc(Oc2ccc(NC(=O)Nc3cc(C(C)(C)C)nn3-c3ccc(C)cc3)c3ccccc23)ncn1` [Example 63, N-(6-(4-(3-(3-tert-Butyl-1-p-tolyl-1H-pyrazol-5-yl)ureido)naphthalen-1-yloxy)pyrimidin-4-yl)-2-methoxyacetamide]: the IC50 in data set [1] (Table 1) is under 10 nM; in data set [2] (setting [7]), under 10 nM; in data set [3] (Table 1), under 5000 nM; in data set [4] (Table 1) it was under 10 nM. The “DU937 (cell viability) MTT assay 4 h” value is “+^$ (>30%)” in data set [5] (Table 1, MTT, loss of cell viability, test conducted at 10 μg/ml) and “−^$ (<=30%)” in data set [5] (Table 1, first MTT column, loss of cell viability, test conducted at 10 μg/ml). In data set [6] (setting [10]), the EC50 was under 10 nM.

`COCC(=O)Nc1cc(Oc2ccc(NC(=O)Nc3cc(C(C)(C)C)nn3-c3ccc(C)cc3)cc2)ccn1` [Example 22, N-(4-(4-(3-(3-tert-Butyl-1-p-tolyl-1H-pyrazol-5-yl)ureido)phenoxy)pyridin-2-yl)-2-methoxyacetamide]: the IC50 in data set [1] (Table 2) was under 5000 nM; in data set [2] (setting [14]), under 10 nM; in data set [3] (Table 2), under 5000 nM; in data set [4] (Table 2), under 10 nM. The “DU937 (cell viability) MTT assay 4 h” value in data set [5] (setting [15]) is on record as “− (<=30%)”. For the same molecule, the “DU937 (cell viability) MTT assay 24 h” value in data set [5] (setting [15]) was “+ (>30%)”. Besides, the EC50 in data set [6] (setting [10]) is under 10 nM.

As for `Cc1ccc(-n2nc(C(C)(C)C)cc2NC(=O)Nc2ccc(Oc3ccnc(NC(N)=O)n3)c3ccccc23)cc1` [Example 66, 3-(4-(4-(3-(3-tert-Butyl-1-p-tolyl-1H-pyrazol-5-yl)ureido)naphthalen-1-yloxy)pyrimidin-2-yl)urea], the IC50 is under 5000 nM in data set [1] (Table 1), under 10 nM in data set [2] (setting [7]), under 5000 nM in data set [3] (Table 1) and under 10 nM in data set [4] (Table 1). For the same molecule, the “DU937 (cell viability) MTT assay 4 h” value in data set [5] (setting [8]) and in data set [5] (setting [9]) was “− (<=30%)” in each case. The EC50 in data set [6] (setting [10]) was under 10 nM.

For the molecule `Cc1ccc(-n2nc(C(C)(C)C)cc2NC(=O)Nc2ccc(Oc3ccnc(NC(=O)NCC(=O)NCCN4CCOCC4)c3)c3ccccc23)cc1` [Example 57, 2-(3-(4-(4-(3-(3-tert-Butyl-1-p-tolyl-1H-pyrazol-5-yl)ureido)naphthalen-1-yloxy)pyridin-2-yl)ureido)-N-(2-morpholinoethyl)acetamide], the IC50 in data set [1] (Table 3) is under 10 nM; in data set [2] (setting [11]), under 10 nM; in data set [3] (Table 3), under 5000 nM; in data set [4] (Table 3), under 5000 nM. In addition, the “DU937 (cell viability) MTT assay 4 h” value in data set [5] (setting [12]) and in data set [5] (setting [13]) was “− (<=30%)” in each case. Moreover, the EC50 in data set [6] (setting [10]) was under 5000 nM.

For the molecule `CCNC(=O)Nc1cc(Oc2ccc(NC(=O)Nc3cc(C(C)(C)C)nn3-c3ccc(C)cc3)c3ccccc23)ccn1` [Example 28, N-Ethyl-N′-4-(4-(3-(3-tert-butyl-1-p-tolyl-1H-pyrazol-5-yl)ureido)naphthalen-1-yloxy)pyridin-2-ylurea], the IC50 in data set [1] (Table 3) is under 5000 nM; in data set [2] (setting [11]), under 10 nM; in data set [3] (Table 3), under 5000 nM; in data set [4] (Table 3), under 5000 nM. Moreover, the “DU937 (cell viability) MTT assay 4 h” value in data set [5] (Table 3, first MTT column, loss of cell viability, test conducted at 10 μg/ml) was “−^$ (<=30%)”; in data set [5] (Table 3, second MTT column, loss of cell viability, test conducted at 10 μg/ml), “−^$ (<=30%)”. Moreover, the EC50 in data set [6] (setting [10]) is under 5000 nM.

For `Cc1ccc(-n2nc(C(C)(C)C)cc2NC(=O)Nc2ccc(Oc3ccnc(NC(=O)NC4CCN(C)CC4)c3)c3ccccc23)cc1` [Example 50, N-(1-Methyl)piperidin-4-yl-N′-4-(4-(3-(3-tert-butyl-1-p-tolyl-1H-pyrazol-5-yl)ureido)naphthalen-1-yloxy)pyridin-2-ylurea], the IC50 in data set [1] (Table 3) was under 10 nM; in data set [2] (THP-1, read-out: THP-1 (LPS) TNFα IC50) it was under 10 nM; in data set [3], under 10 nM; in data set [4], under 10 nM. Further, the results for the “DU937 (cell viability) MTT assay 4 h” value in data set [5] (setting [12]) and in data set [5] (setting [13]) were “− (<=30%)” and “+ (>30%)”, respectively. For the same molecule, the EC50 in data set [6] (Homo sapiens, read-out: DU937 (LPS) TNFα REC50) was under 10 nM.

With `COCC(=O)Nc1nccc(Oc2ccc(NC(=O)Nc3cc(C(C)(C)C)nn3-c3ccc(C)cc3)c3ccccc23)n1` [Example 65, N-(4-(4-(3-(3-tert-Butyl-1-p-tolyl-1H-pyrazol-5-yl)ureido)naphthalen-1-yloxy)pyrimidin-2-yl)-2-methoxyacetamide], the IC50 in data set [1] (Table 1) is under 5000 nM; in data set [2] (setting [7]), under 10 nM; in data set [3] (Table 1), under 5000 nM; in data set [4] (Table 1) it was under 5000 nM. Further, the “DU937 (cell viability) MTT assay 4 h” value in data set [5] (setting [8]) and in data set [5] (setting [9]) was “− (<=30%)” throughout. In addition, the EC50 in data set [6] (setting [10]) is under 10 nM.
